Non-standard residues stand in square brackets, D forms with d. Residues, ends and D or L forms follow the SMILES beside them. *: point of attachment. NMeY = CN[C@@H](Cc1ccc(O)cc1)C(=O)O; Agmatine = N=C(N)NCCCCN*; Nle = CCCC[C@H](N)C(=O)O; Orn = NCCC[C@H](N)C(=O)O; Abu = CC[C@H](N)C(=O)O
Legend:
[1] = system: myocardial infarction (Fisher-344 rats); experiment: Echocardiography in rat myocardial infarction model, treatment from 4 weeks post-MI (Example 13); type: in vivo; conditions: mean ± SEM; for EF (4 Weeks): 50 μg/kg s.c. twice daily for 4 weeks; for EF (Baseline): ejection fraction at baseline
Method: (§1) Myocardial infarction (MI) was induced by permanent ligation of the left coronary artery in female 6-month-old Fisher-344 rats. Animals were randomly assigned to receive placebo (DMSO+propylene glycol) or one of the GHRH-agonists (JI-38, MR-356/P-20356, MR-409/P-27409, all 50 μg/kg), starting 4 weeks post-MI. All treatment was given subcutaneously twice daily for 4 weeks.
Echocardiographic measurements were obtained at baseline, 2 days, 1, 2 and 4 weeks. Echocardiographic assessments were performed in anesthetized rats (2% isoflurane inhalation) using a Vevo-770 echocardiogram (Visual Sonics Inc., Toronto, Ontario, Canada) equipped with a 17.5-MHz transducer. Cardiac dimensions: LV end diastolic (LVEDD), end systolic (LVESD) diameters and fractional shortening (FS) were recorded from M-mode images using averaged measurements from 3 to 5 consecutive cardiac cycles according to the American Society of Echocardiography. Ejection fraction (EF) was calculated from bi-dimensional long-axis parasternal views taken through the infarcted area. All images were analyzed using Vevo 770 3.0.0 software (Visual Sonics Inc., Toronto, Ontario, Canada).

[2] = system: nitrosoglutathione reductase-/- (GSNOR-/-) mesenchymal stem cells (MSCs); experiment: Tube formation of GSNOR-/- mesenchymal stem cells in Matrigel; type: cell-based, mouse; conditions: GSNOR-/- MSCs on Matrigel, 6 to 24 hours
Method: Bone marrow-derived MSCs isolated from wildtype and GSNOR^−/− mice were grown in endothelial growth media (EGM-2, Lonza Biotech) for a period of 1 week. Cells were harvested by brief trypsinization and plated in 24-well culture dishes (5×10^4 cells/well) pre-coated with 300 μl of Matrigel (BD Biosciences). Cells were incubated in endothelial basal media (Lonza Biotech) supplemented with 0.1% bovine serum albumin, in the presence or absence of GHRH agonist peptides P-20356 and P-27409. After 6 to 24 hours, tube formation potential was quantified in each sample by measuring the number and length of tubes formed using Image J Software (NIH).

[3] = system: myocardial infarction (Fisher-344 rats); experiment: Morphometric analysis of infarct size, rat MI model (Example 13); type: in vivo; conditions: 50 μg/kg s.c. twice daily for 4 weeks; mean ± SEM
Method: as §1
Rat hearts were processed using routine histological procedures. Samples were fixed in formalin.
Paraffin sections were deparaffinized and rehydrated by immersion in xylene followed by a graded series of ethanol. Antigen retrieval was performed by a heat-induced method with citrate buffer (Dako, Carpinteria, Calif.). After blocking with 10% normal donkey serum, sections were incubated with a primary antibody at 37° C. for 1 hour, followed by application of secondary antibody. Omission of the primary antibodies on parallel sections was used as negative control. Nuclei were counterstained with DAPI (Invitrogen, Carlsbad, Calif.). The total numbers of positively-stained cells (c-kit, CD45, phospho-histone H3 [pH3]) were quantified per slide to calculate the number of cells per section on each sample. Morphometric analysis was performed using Adobe Photoshop CS3 (San Jose, Calif.).

GHRH receptor = target: T1, GHRH receptor (Homo sapiens, UniProt Q02643); experiment: GHRH receptor binding, competition with 125I-labeled JV-1-42, human pituitary membrane homogenates (Table 5); set-up: Normal human pituitaries were purchased from the National Hormone and Peptide Program; tissue National Hormone and Peptide Program (A.F. Parlow, Harbor-UCLA Medical Center, Torrance, Calif.); host or cells: normal human pituitary, membrane fraction
T1 sequence (Q02643 23-423): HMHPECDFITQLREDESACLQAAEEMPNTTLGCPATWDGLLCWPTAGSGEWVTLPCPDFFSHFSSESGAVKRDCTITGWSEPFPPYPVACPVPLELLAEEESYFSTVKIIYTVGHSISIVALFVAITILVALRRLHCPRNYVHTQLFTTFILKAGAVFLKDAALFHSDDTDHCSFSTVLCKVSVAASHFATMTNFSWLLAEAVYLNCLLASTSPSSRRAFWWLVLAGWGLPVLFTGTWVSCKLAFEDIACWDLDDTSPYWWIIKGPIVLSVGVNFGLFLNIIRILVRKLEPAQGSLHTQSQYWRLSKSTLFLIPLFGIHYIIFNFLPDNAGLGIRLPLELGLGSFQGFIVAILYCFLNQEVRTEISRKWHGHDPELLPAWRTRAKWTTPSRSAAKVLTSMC

[4] = system: myocardial infarction (Fischer 344 rats); experiment: Echocardiography in rat MI model, treatment from 2 hours post-surgery (Example 14); type: in vivo; conditions: echocardiographic measurements at day 2 post-MI
Method: MI was induced in female 6-month-old Fischer 344 rats by permanent ligation of left ventricular (LV) anterior descending coronary artery. Animals were randomly assigned to receive placebo or one of the following GHRH agonists (MR-356, MR-361, MR-367, MR-403, MR-404, MR-409 and MR-502) starting 2 hours post-surgery. All treatment (50 μg/kg) was given subcutaneously twice daily for 4 weeks. The Institutional Animal Care and Use committee of the University of Miami approved all protocols and experimental procedures.
Longitudinal evaluation of LV remodeling was obtained by echocardiographic measurements between baseline and 4 weeks following MI. Echocardiographic assessments were performed in anesthetized rats (1-2% isoflurane inhalation) using a Vevo-770 echocardiogram (Visual Sonics Inc., Toronto, Ontario, Canada) equipped with 25 MHz transducer. Cardiac dimensions were recorded from M-mode images using averaged measurements from 3 to 5 consecutive cardiac cycles. LV end-diastolic and end-systolic volumes and ejection fraction (EF) were calculated from bi-dimensional long-axis parasternal views taken through the infarcted area. All images were analyzed using Vevo 770 3.0.0 software (Visual Sonics).

GH release = experiment: In vivo endocrine activity, GH release after intravenous administration (Table 8); conditions: rat, i.v. injection

SMILES	EF (4 Weeks) [1] [%]	EF (Baseline) [1] [%]	Tube formation [2]	MI size (%) [3] [%]	Relative affinity (Binding potency) vs GHRH (GHRH receptor; GHRH(1-29) = 1, Table 5)	Relative affinity (Binding potency) vs JI-38 (GHRH receptor; JI-38 = 1, Table 5)	EF at day 2 post-MI [4]	GH releasing potency in vivo relative to JI-38 (=1) (GH release; 5 min after)	GH releasing potency in vivo relative to JI-38 (=1) (GH release; 15 min after)	GH releasing potency in vivo relative to JI-38 (=1) (GH release; 30 min after)
CCCC[C@H](NC(=O)[C@@H](NC(=O)[C@H](CC(=O)O)NC(=O)[C@H](CCC(N)=O)NC(=O)[C@H](CC(C)C)NC(=O)[C@H](CC(C)C)NC(=O)[C@H](CCCN)NC(=O)[C@H](CCCNC(=N)N)NC(=O)[C@H](C)NC(=O)[C@H](CO)NC(=O)[C@H](CC(C)C)NC(=O)[C@H](CCC(N)=O)NC(=O)[C@H](CC)NC(=O)[C@H](CC(C)C)NC(=O)[C@@H](NC(=O)[C@H](CCCN)NC(=O)[C@H](CCCNC(=N)N)NC(=O)[C@H](Cc1ccc(O)cc1)NC(=O)[C@H](CO)NC(=O)[C@H](CC(N)=O)NC(=O)[C@@H](NC(=O)[C@H](Cc1ccccc1)NC(=O)[C@@H](NC(=O)[C@H](C)NC(=O)[C@H](CC(=O)O)NC(=O)[C@@H](C)NC(=O)[C@H](Cc1ccc(O)cc1)NC)[C@@H](C)CC)[C@@H](C)O)C(C)C)[C@@H](C)CC)C(=O)N[C@@H](CC(=O)O)C(=O)N[C@@H](CCCNC(=N)N)C(=O)NC [Peptide P-27409, [N—Me-Tyr^1, D-Ala^2, Orn^12, Abu^15, Orn^21, Nle^27, Asp^28]hGHRH(1-29)NH—CH3] (H-[NMeY][dA]DAIFTNSYR[Orn]VL[Abu]QLSAR[Orn]LLQDI[Nle]DR-NHMe)	48 ± 2.8	90 ± 0.8	formed tube-like structures similar to wildtype MSCs	42 ± 1.9	–	–	–	–	–	–
CCCC[C@H](NC(=O)[C@@H](NC(=O)[C@H](CC(=O)O)NC(=O)[C@H](CCC(N)=O)NC(=O)[C@H](CC(C)C)NC(=O)[C@H](CC(C)C)NC(=O)[C@H](CCCN)NC(=O)[C@H](CCCNC(=N)N)NC(=O)[C@H](C)NC(=O)[C@H](CO)NC(=O)[C@H](CC(C)C)NC(=O)[C@H](CCC(N)=O)NC(=O)[C@H](CC)NC(=O)[C@H](CC(C)C)NC(=O)[C@@H](NC(=O)[C@H](CCCN)NC(=O)[C@H](CCCNC(=N)N)NC(=O)[C@H](Cc1ccc(O)cc1)NC(=O)[C@H](CO)NC(=O)[C@H](CCC(N)=O)NC(=O)[C@@H](NC(=O)[C@H](Cc1ccccc1)NC(=O)[C@@H](NC(=O)[C@H](C)NC(=O)[C@H](CC(=O)O)NC(=O)[C@H](C)NC(=O)[C@H](Cc1ccc(O)cc1)NC)[C@@H](C)CC)[C@@H](C)O)C(C)C)[C@@H](C)CC)C(=O)N[C@@H](CC(=O)O)C(=O)NCCCCNC(=N)N [Peptide P-20356, [N—Me-Tyr^1, Gln^8, Orn^12, Abu^15, Orn^21, Nle^27, Asp^28, Agm^29]hGHRH(1-29) NH2] (H-[NMeY]ADAIFTQSYR[Orn]VL[Abu]QLSAR[Orn]LLQDI[Nle]D-Agmatine)	51 ± 2.7	88 ± 0.6	formed tube-like structures similar to wildtype MSCs	37 ± 2.5	406.0	171	slightly better preserved	1.07	0.91	1.22
